Reference: the NIST ThermoML archive (doi:10.1016/j.fluid.2008.03.004)

Assay: xn = mol fraction of the nth substance listed
Settings: 101 kPa, Liquid; for speed of sound: Sing-around technique in a fixed-path interferometer

CCOC(C)(C)C [2-ethoxy-2-methylpropane] + Cc1cccc(C)c1
Settings | mass density [kg/m3] | speed of sound [m/s]
305.65 K, x1 = 0.05 | 847.026 | –
305.65 K, x1 = 0.099 | 840.74 | –
305.65 K, x1 = 0.2 | 828.116 | –
305.65 K, x1 = 0.3 | 815.278 | –
305.65 K, x1 = 0.4 | 802.699 | –
305.65 K, x1 = 0.497 | 790.26 | –
305.65 K, x1 = 0.598 | 777.566 | –
305.65 K, x1 = 0.698 | 765.236 | –
305.65 K, x1 = 0.8 | 752.76 | –
305.65 K, x1 = 0.898 | 740.246 | –
305.65 K, x1 = 0.95 | 733.801 | –
305.65 K, x1 = 1 | 727.038 | –
308.15 K, x1 = 0.05 | 844.847 | 1261.4
308.15 K, x1 = 0.099 | 838.542 | 1248.3
308.15 K, x1 = 0.2 | 825.874 | 1219
308.15 K, x1 = 0.3 | 812.993 | 1189.3
308.15 K, x1 = 0.4 | 800.369 | 1159.9
308.15 K, x1 = 0.497 | 787.887 | 1131
308.15 K, x1 = 0.598 | 775.147 | 1101.7
308.15 K, x1 = 0.698 | 762.77 | 1074.5
308.15 K, x1 = 0.8 | 750.245 | 1045.6
308.15 K, x1 = 0.898 | 737.68 | 1018.8
308.15 K, x1 = 0.95 | 731.212 | 1004.3
308.15 K, x1 = 1 | 724.443 | 986.39
310.65 K, x1 = 0.05 | 842.667 | 1251.2
310.65 K, x1 = 0.099 | 836.338 | 1238
310.65 K, x1 = 0.2 | 823.629 | 1208.6
310.65 K, x1 = 0.3 | 810.701 | 1178.8
310.65 K, x1 = 0.4 | 798.033 | 1149.3
310.65 K, x1 = 0.497 | 785.51 | 1120.3
310.65 K, x1 = 0.598 | 772.72 | 1091
310.65 K, x1 = 0.698 | 760.296 | 1063.7
310.65 K, x1 = 0.8 | 747.726 | 1034.7
310.65 K, x1 = 0.898 | 735.108 | 1007.8
310.65 K, x1 = 0.95 | 728.609 | 993.27
310.65 K, x1 = 1 | 721.826 | 975.42
313.15 K, x1 = 0.05 | 840.482 | 1241
313.15 K, x1 = 0.099 | 834.132 | 1227.8
313.15 K, x1 = 0.2 | 821.379 | 1198.3
313.15 K, x1 = 0.3 | 808.405 | 1168.3
313.15 K, x1 = 0.4 | 795.695 | 1138.9
313.15 K, x1 = 0.497 | 783.123 | 1109.8
313.15 K, x1 = 0.598 | 770.288 | 1080.4
313.15 K, x1 = 0.698 | 757.817 | 1053
313.15 K, x1 = 0.8 | 745.2 | 1024
313.15 K, x1 = 0.898 | 732.523 | 996.88
313.15 K, x1 = 0.95 | 726.007 | 982.39
313.15 K, x1 = 1 | 719.179 | 964.53
315.65 K, x1 = 0.05 | 838.29 | 1230.9
315.65 K, x1 = 0.099 | 831.922 | 1217.6
315.65 K, x1 = 0.2 | 819.125 | 1188
315.65 K, x1 = 0.3 | 806.105 | 1157.9
315.65 K, x1 = 0.4 | 793.351 | 1128.5
315.65 K, x1 = 0.497 | 780.733 | 1099.2
315.65 K, x1 = 0.598 | 767.848 | 1069.7
315.65 K, x1 = 0.698 | 755.328 | 1042.3
315.65 K, x1 = 0.8 | 742.656 | 1013.2
315.65 K, x1 = 0.898 | 729.931 | 985.99
315.65 K, x1 = 0.95 | 723.382 | 971.39
315.65 K, x1 = 1 | 716.527 | 953.54
318.15 K, x1 = 0.05 | 836.094 | 1220.7
318.15 K, x1 = 0.099 | 829.704 | 1207.4
318.15 K, x1 = 0.2 | 816.865 | 1177.8
318.15 K, x1 = 0.3 | 803.8 | 1147.6
318.15 K, x1 = 0.4 | 790.999 | 1118
318.15 K, x1 = 0.497 | 778.333 | 1088.7
318.15 K, x1 = 0.598 | 765.399 | 1059.2
318.15 K, x1 = 0.698 | 752.842 | 1031.8
318.15 K, x1 = 0.8 | 740.101 | 1002.4
318.15 K, x1 = 0.898 | 727.323 | 975.1
318.15 K, x1 = 0.95 | 720.743 | 960.42
318.15 K, x1 = 1 | 713.96 | 942.67
320.65 K, x1 = 0.05 | 833.892 | 1210.6
320.65 K, x1 = 0.099 | 827.484 | 1197.3
320.65 K, x1 = 0.2 | 814.602 | 1167.6
320.65 K, x1 = 0.3 | 801.489 | 1137.3
320.65 K, x1 = 0.4 | 788.639 | 1107.6
320.65 K, x1 = 0.497 | 775.926 | 1078.3
320.65 K, x1 = 0.598 | 762.944 | 1048.6
320.65 K, x1 = 0.698 | 750.335 | 1021.1
320.65 K, x1 = 0.8 | 737.539 | 991.66
320.65 K, x1 = 0.898 | 724.705 | 964.24
320.65 K, x1 = 0.95 | 718.093 | 949.5
320.65 K, x1 = 1 | 711.25 | 931.73
323.15 K, x1 = 0.05 | 831.689 | 1200.6
323.15 K, x1 = 0.099 | 825.258 | 1187.2
323.15 K, x1 = 0.2 | 812.331 | 1157.4
323.15 K, x1 = 0.3 | 799.17 | 1127
323.15 K, x1 = 0.4 | 786.273 | 1097.3
323.15 K, x1 = 0.497 | 773.51 | 1067.8
323.15 K, x1 = 0.598 | 760.487 | 1038.2
323.15 K, x1 = 0.698 | 747.817 | 1010.4
323.15 K, x1 = 0.8 | 734.964 | 980.96
323.15 K, x1 = 0.898 | 722.075 | 953.5
323.15 K, x1 = 0.95 | 715.433 | 938.66
323.15 K, x1 = 1 | 708.642 | 920.73
